Reference: ChEMBL document CHEMBL4152339, “Design and synthesis of novel 1H-tetrazol-5-amine based potent antimicrobial agents: DNA topoisomerase IV and gyrase affinity evaluation supported by molecular docking studies” (Eur J Med Chem, 2018)
In brackets after ≈: the same amount, converted by molar mass.

Assays:
Staphylococcus aureus [1] = test: Antibacterial activity against Staphylococcus aureus NCTC 4163 after 18 hrs by CLSI disc diffusion method; type: functional; conditions: NCTC 4163, 18 h
Staphylococcus aureus [2] = test: Antibacterial activity against Staphylococcus aureus ATCC 25923 after 18 hrs by CLSI disc diffusion method; type: functional; conditions: ATCC 25923, 18 h
Staphylococcus aureus [3] = test: Antibacterial activity against Staphylococcus aureus ATCC 6538 after 18 hrs by CLSI disc diffusion method; type: functional; conditions: ATCC 6538, 18 h
[4] = system: Staphylococcus epidermidis; test: Antibacterial activity against Staphylococcus epidermidis ATCC 12228 after 18 hrs by CLSI disc diffusion method; type: functional; conditions: ATCC 12228, 18 h
[5] = system: Staphylococcus epidermidis; test: Antibacterial activity against Staphylococcus epidermidis ATCC 35984 after 18 hrs by CLSI […] method; type: functional; conditions: ATCC 35984, 18 h
Bacillus spizizenii = test: Antibacterial activity against Bacillus subtilis ATCC 6633 after 18 hrs by CLSI disc diffusion method; type: functional; conditions: ATCC 6633, 18 h
Bacillus cereus = test: Antibacterial activity against Bacillus cereus ATCC 11778 after 18 hrs by CLSI disc diffusion method; type: functional; conditions: ATCC 11778, 18 h
Enterococcus hirae = test: Antibacterial activity against Enterococcus hirae ATCC 10541 after 18 hrs by CLSI disc diffusion method; type: functional; conditions: ATCC 10541, 18 h
Enterococcus faecalis = test: Antibacterial activity against Enterococcus faecalis ATCC 29212 after 18 hrs by CLSI disc diffusion method; type: functional; conditions: ATCC 29212, 18 h
Micrococcus luteus [6] = test: Antibacterial activity against Micrococcus luteus ATCC 10240 after 18 hrs by CLSI disc diffusion method; type: functional; conditions: ATCC 10240, 18 h
Micrococcus luteus [7] = test: Antibacterial activity against Micrococcus luteus ATCC 9341 after 18 hrs by CLSI disc diffusion method; type: functional; conditions: ATCC 9341, 18 h
Escherichia coli [8] = test: Antibacterial activity against Escherichia coli ATCC 10538 after 18 hrs by CLSI disc diffusion method; type: functional; conditions: ATCC 10538, 18 h
Proteus vulgaris = test: Antibacterial activity against Proteus vulgaris NCTC 4635 after 18 hrs by CLSI disc diffusion method; type: functional; conditions: NCTC 4635, 18 h
Pseudomonas aeruginosa [9] = test: Antibacterial activity against Pseudomonas aeruginosa ATCC 15442 after 18 hrs by CLSI disc diffusion method; type: functional; conditions: ATCC 15442, 18 h
Pseudomonas aeruginosa [10] = test: Antibacterial activity against Pseudomonas aeruginosa ATCC 27853 after 18 hrs by CLSI disc diffusion method; type: functional; conditions: ATCC 27853, 18 h
[11] = system: Bordetella bronchiseptica; test: Antibacterial activity against Bordetella bronchiseptica ATCC 4617 after 18 hrs by CLSI disc diffusion method; type: functional; conditions: ATCC 4617, 18 h
Staphylococcus aureus [12] = test: Antibacterial activity against Staphylococcus aureus 495 after 18 hrs by CLSI disc diffusion method; type: functional; conditions: Staphylococcus aureus, 495, 18 h
Staphylococcus aureus [13] = test: Antibacterial activity against Staphylococcus aureus 496 after 18 hrs by CLSI disc diffusion method; type: functional; conditions: Staphylococcus aureus, 496, 18 h
Staphylococcus aureus [14] = test: Antibacterial activity against Staphylococcus aureus 497 after 18 hrs by CLSI disc diffusion method; type: functional; conditions: Staphylococcus aureus, 497, 18 h
Staphylococcus aureus [15] = test: Antibacterial activity against Staphylococcus aureus 498 after 18 hrs by CLSI disc diffusion method; type: functional; conditions: Staphylococcus aureus, 498, 18 h
Staphylococcus aureus [16] = test: Antibacterial activity against Staphylococcus aureus 537 after 18 hrs by CLSI disc diffusion method; type: functional; conditions: Staphylococcus aureus, 537, 18 h
Staphylococcus aureus [17] = test: Antibacterial activity against Staphylococcus aureus 572 after 18 hrs by CLSI disc diffusion method; type: functional; conditions: Staphylococcus aureus, 572, 18 h
Staphylococcus aureus [18] = test: Antibacterial activity against Staphylococcus aureus 585 after 18 hrs by CLSI disc diffusion method; type: functional; conditions: Staphylococcus aureus, 585, 18 h
Staphylococcus aureus [19] = test: Antibacterial activity against Staphylococcus aureus 586 after 18 hrs by CLSI disc diffusion method; type: functional; conditions: Staphylococcus aureus, 586, 18 h
[20] = system: Staphylococcus epidermidis; test: Antibacterial activity against Staphylococcus epidermidis 423 after 18 hrs by CLSI disc diffusion method; type: functional; conditions: Staphylococcus epidermidis, 423, 18 h
[21] = system: Staphylococcus epidermidis; test: Antibacterial activity against Staphylococcus epidermidis 431 after 18 hrs by CLSI disc diffusion method; type: functional; conditions: Staphylococcus epidermidis, 431, 18 h
[22] = system: Staphylococcus epidermidis; test: Antibacterial activity against Staphylococcus epidermidis 432 after 18 hrs by CLSI disc diffusion method; type: functional; conditions: Staphylococcus epidermidis, 432, 18 h
[23] = system: Staphylococcus epidermidis; test: Antibacterial activity against Staphylococcus epidermidis 433 after 18 hrs by CLSI disc diffusion method; type: functional; conditions: Staphylococcus epidermidis, 433, 18 h
[24] = system: Staphylococcus epidermidis; test: Antibacterial activity against Staphylococcus epidermidis 469 after 18 hrs by CLSI disc diffusion method; type: functional; conditions: Staphylococcus epidermidis, 469, 18 h
[25] = system: Staphylococcus epidermidis; test: Antibacterial activity against Staphylococcus epidermidis 471 after 18 hrs by CLSI disc diffusion method; type: functional; conditions: Staphylococcus epidermidis, 471, 18 h
[26] = system: Staphylococcus epidermidis; test: Antibacterial activity against Staphylococcus epidermidis 510 after 18 hrs by CLSI disc diffusion method; type: functional; conditions: Staphylococcus epidermidis, 510, 18 h
[27] = system: Staphylococcus epidermidis; test: Antibacterial activity against Staphylococcus epidermidis 511 after 18 hrs by CLSI disc diffusion method; type: functional; conditions: Staphylococcus epidermidis, 511, 18 h
Pseudomonas aeruginosa [28] = test: Antibacterial activity against Pseudomonas aeruginosa 6m after 18 hrs by CLSI disc diffusion method; type: functional
Pseudomonas aeruginosa [29] = test: Antibacterial activity against Pseudomonas aeruginosa 7m after 18 hrs by CLSI disc diffusion method; type: functional
Pseudomonas aeruginosa [30] = test: Antibacterial activity against Pseudomonas aeruginosa 10m after 18 hrs by CLSI disc diffusion method; type: functional
Pseudomonas aeruginosa [31] = test: Antibacterial activity against Pseudomonas aeruginosa 11m after 18 hrs by CLSI disc diffusion method; type: functional
Pseudomonas aeruginosa [32] = test: Antibacterial activity against Pseudomonas aeruginosa 12m after 18 hrs by CLSI disc diffusion method; type: functional
Pseudomonas aeruginosa [33] = test: Antibacterial activity against Pseudomonas aeruginosa 16m after 18 hrs by CLSI disc diffusion method; type: functional
Pseudomonas aeruginosa [34] = test: Antibacterial activity against Pseudomonas aeruginosa 18m after 18 hrs by CLSI disc diffusion method; type: functional
Pseudomonas aeruginosa [35] = test: Antibacterial activity against Pseudomonas aeruginosa 31m after 18 hrs by CLSI disc diffusion method; type: functional
Escherichia coli [36] = test: Antibacterial activity against Escherichia coli ML 5 after 18 hrs by CLSI disc diffusion method; type: functional; conditions: ML 5, 18 h
Escherichia coli [37] = test: Antibacterial activity against Escherichia coli ML 6 after 18 hrs by CLSI disc diffusion method; type: functional; conditions: ML 6, 18 h
Escherichia coli [38] = test: Antibacterial activity against Escherichia coli ML 8 after 18 hrs by CLSI disc diffusion method; type: functional; conditions: ML 8, 18 h
Escherichia coli [39] = test: Antibacterial activity against Escherichia coli ML 9 after 18 hrs by CLSI disc diffusion method; type: functional; conditions: ML 9, 18 h
Escherichia coli [40] = test: Antibacterial activity against Escherichia coli ML 12 after 18 hrs by CLSI disc diffusion method; type: functional; conditions: ML 12, 18 h
Escherichia coli [41] = test: Antibacterial activity against Escherichia coli ML 15 after 18 hrs by CLSI disc diffusion method; type: functional; conditions: ML 15, 18 h
Escherichia coli [42] = test: Antibacterial activity against Escherichia coli ML 16 after 18 hrs by CLSI disc diffusion method; type: functional; conditions: ML 16, 18 h
Escherichia coli [43] = test: Antibacterial activity against Escherichia coli ML 17 after 18 hrs by CLSI disc diffusion method; type: functional; conditions: ML 17, 18 h
A549 = test: Cytotoxicity activity against human A549 cells assessed as reduction in cell viability after 72 hrs by MTT assay; type: cell-based; conditions: A549, 72 h
HaCaT = test: Cytotoxicity activity against human HaCaT cells assessed as reduction in cell viability after 72 hrs by MTT assay; type: cell-based
[44] = Selectivity index, ratio of IC50 for human HaCaT cells to MIC for Staphylococcus aureus NCTC 4163; type: toxicity; conditions: read-out: Selectivity Index
[45] = Selectivity index, ratio of IC50 for human HaCaT cells to MIC for Bacillus subtilis ATCC 6633; type: toxicity; conditions: read-out: Selectivity Index
[46] = Selectivity index, ratio of IC50 for human HaCaT cells to MIC for Enterococcus hirae ATCC 10541; type: toxicity; conditions: read-out: Selectivity Index
[47] = Selectivity index, ratio of IC50 for human HaCaT cells to MIC for Micrococcus luteus ATCC 10240; type: toxicity; conditions: read-out: Selectivity Index
[48] = Selectivity index, ratio of IC50 for human HaCaT cells to MIC for Escherichia coli ATCC 10538; type: toxicity; conditions: read-out: Selectivity Index
[49] = Selectivity index, ratio of IC50 for human HaCaT cells to MIC for Proteus vulgaris NCTC 4635; type: toxicity; conditions: read-out: Selectivity Index
[50] = Selectivity index, ratio of IC50 for human HaCaT cells to MIC for Bordetella bronchiseptica ATCC 4617; type: toxicity; conditions: read-out: Selectivity Index
DNA gyrase = DNA gyrase (Staphylococcus aureus, UniProt P0A0K8+P20831); test: Inhibition of Staphylococcus aureus DNA gyrase supercoiling activity using pBR322 DNA as substrate after 30 mins by ethidium bromide staining based agarose gel electrophoresis method; type: protein-complex assay
Sequence of DNA gyrase (P0A0K8 whole entry): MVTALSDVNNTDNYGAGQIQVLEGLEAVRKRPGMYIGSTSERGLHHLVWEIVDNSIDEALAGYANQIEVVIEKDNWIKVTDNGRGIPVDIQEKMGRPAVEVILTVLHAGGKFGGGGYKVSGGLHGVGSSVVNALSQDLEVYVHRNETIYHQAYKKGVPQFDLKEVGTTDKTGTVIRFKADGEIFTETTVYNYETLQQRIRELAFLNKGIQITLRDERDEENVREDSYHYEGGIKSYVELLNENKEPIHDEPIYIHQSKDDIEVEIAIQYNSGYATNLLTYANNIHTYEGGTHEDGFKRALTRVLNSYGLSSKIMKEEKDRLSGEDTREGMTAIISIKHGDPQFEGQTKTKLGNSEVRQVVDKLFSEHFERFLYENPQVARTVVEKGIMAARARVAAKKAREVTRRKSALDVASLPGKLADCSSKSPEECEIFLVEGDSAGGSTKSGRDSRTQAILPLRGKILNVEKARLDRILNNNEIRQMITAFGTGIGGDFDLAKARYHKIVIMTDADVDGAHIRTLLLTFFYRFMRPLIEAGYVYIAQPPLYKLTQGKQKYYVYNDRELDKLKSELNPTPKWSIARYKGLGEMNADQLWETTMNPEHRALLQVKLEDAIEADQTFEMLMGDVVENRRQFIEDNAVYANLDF
Sequence of DNA gyrase (P20831 whole entry): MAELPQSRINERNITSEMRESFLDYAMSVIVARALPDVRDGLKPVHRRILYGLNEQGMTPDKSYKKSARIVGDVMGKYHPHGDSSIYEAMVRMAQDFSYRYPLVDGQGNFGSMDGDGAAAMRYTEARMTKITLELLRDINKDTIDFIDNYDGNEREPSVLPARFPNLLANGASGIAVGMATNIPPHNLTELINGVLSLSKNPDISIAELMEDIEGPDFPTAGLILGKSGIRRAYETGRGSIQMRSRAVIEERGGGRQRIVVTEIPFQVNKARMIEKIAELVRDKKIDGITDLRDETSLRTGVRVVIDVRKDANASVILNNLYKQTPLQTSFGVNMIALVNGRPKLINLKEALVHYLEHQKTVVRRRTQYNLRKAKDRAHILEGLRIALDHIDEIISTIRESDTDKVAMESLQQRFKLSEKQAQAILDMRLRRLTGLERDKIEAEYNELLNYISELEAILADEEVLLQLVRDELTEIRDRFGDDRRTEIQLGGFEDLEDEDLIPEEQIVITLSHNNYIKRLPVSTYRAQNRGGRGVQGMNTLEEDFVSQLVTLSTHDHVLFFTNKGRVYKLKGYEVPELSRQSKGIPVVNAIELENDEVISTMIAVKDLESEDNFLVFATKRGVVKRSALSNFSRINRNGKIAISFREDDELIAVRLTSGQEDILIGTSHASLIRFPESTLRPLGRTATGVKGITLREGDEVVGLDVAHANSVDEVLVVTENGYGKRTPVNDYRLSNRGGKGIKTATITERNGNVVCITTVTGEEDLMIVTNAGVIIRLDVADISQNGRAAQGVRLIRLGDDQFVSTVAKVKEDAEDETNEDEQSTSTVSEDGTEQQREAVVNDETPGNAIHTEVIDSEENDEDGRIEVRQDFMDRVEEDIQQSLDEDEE

[51] = Inhibition of Staphylococcus aureus DNA topoisomerase 4 using Kinetoplast DNA as substrate after 30 mins by ethidium bromide staining based agarose gel electrophoresis method

Question: Which results are given for Fc1ccc(-n2nnnc2NCc2ccco2)cc1Cl?
Answer: MIC (Staphylococcus aureus [1]): 7 µM (≈ 2.06 µg/mL); MIC (Staphylococcus aureus [2]): 7 µM (≈ 2.06 µg/mL); MIC (Staphylococcus aureus [3]): 7 µM (≈ 2.06 µg/mL); MIC [4]: 7 µM (≈ 2.06 µg/mL); MIC [5]: 3 µM (≈ 0.881 µg/mL); MIC (Bacillus spizizenii): 3 µM (≈ 0.881 µg/mL); MIC (Bacillus cereus): 3 µM (≈ 0.881 µg/mL); MIC (Enterococcus hirae): 14 µM (≈ 4.11 µg/mL); MIC (Enterococcus faecalis): 7 µM (≈ 2.06 µg/mL); MIC (Micrococcus luteus [6]): 1 µM (≈ 0.294 µg/mL); MIC (Micrococcus luteus [7]): 1 µM (≈ 0.294 µg/mL); MIC (Escherichia coli [8]): 7 µM (≈ 2.06 µg/mL); MIC (Proteus vulgaris): 1 µM (≈ 0.294 µg/mL); MIC (Pseudomonas aeruginosa [9]): 218 µM (≈ 64 µg/mL); MIC (Pseudomonas aeruginosa [10]): 7 µM (≈ 2.06 µg/mL); MIC [11]: 7 µM (≈ 2.06 µg/mL); MIC (Staphylococcus aureus [12]): 7 µM (≈ 2.06 µg/mL); MIC (Staphylococcus aureus [13]): 7 µM (≈ 2.06 µg/mL); MIC (Staphylococcus aureus [14]): 14 µM (≈ 4.11 µg/mL); MIC (Staphylococcus aureus [15]): 7 µM (≈ 2.06 µg/mL); MIC (Staphylococcus aureus [16]): 7 µM (≈ 2.06 µg/mL); MIC (Staphylococcus aureus [17]): 14 µM (≈ 4.11 µg/mL); MIC (Staphylococcus aureus [18]): 14 µM (≈ 4.11 µg/mL); MIC (Staphylococcus aureus [19]): 14 µM (≈ 4.11 µg/mL); MIC [20]: 14 µM (≈ 4.11 µg/mL); MIC [21]: 7 µM (≈ 2.06 µg/mL); MIC [22]: 7 µM (≈ 2.06 µg/mL); MIC [23]: 14 µM (≈ 4.11 µg/mL); MIC [24]: 7 µM (≈ 2.06 µg/mL); MIC [25]: 7 µM (≈ 2.06 µg/mL); MIC [26]: 14 µM (≈ 4.11 µg/mL); MIC [27]: 14 µM (≈ 4.11 µg/mL); MIC (Pseudomonas aeruginosa [28]): 7 µM (≈ 2.06 µg/mL); MIC (Pseudomonas aeruginosa [29]): 7 µM (≈ 2.06 µg/mL); MIC (Pseudomonas aeruginosa [30]): 27 µM (≈ 7.93 µg/mL); MIC (Pseudomonas aeruginosa [31]): 27 µM (≈ 7.93 µg/mL); MIC (Pseudomonas aeruginosa [32]): 7 µM (≈ 2.06 µg/mL); MIC (Pseudomonas aeruginosa [33]): 14 µM (≈ 4.11 µg/mL); MIC (Pseudomonas aeruginosa [34]): 14 µM (≈ 4.11 µg/mL); MIC (Pseudomonas aeruginosa [35]): 7 µM (≈ 2.06 µg/mL); MIC (Escherichia coli [36]): 7 µM (≈ 2.06 µg/mL); MIC (Escherichia coli [37]): 54 µM (≈ 15.9 µg/mL); MIC (Escherichia coli [38]): 7 µM (≈ 2.06 µg/mL); MIC (Escherichia coli [39]): 14 µM (≈ 4.11 µg/mL); MIC (Escherichia coli [40]): 54 µM (≈ 15.9 µg/mL); MIC (Escherichia coli [41]): 54 µM (≈ 15.9 µg/mL); MIC (Escherichia coli [42]): 7 µM (≈ 2.06 µg/mL); MIC (Escherichia coli [43]): 7 µM (≈ 2.06 µg/mL); IC50 (A549): 80 µM; IC50 (HaCaT): 84 µM; selectivity ratio [44]: 12; selectivity ratio [45]: 28; selectivity ratio [46]: 6; selectivity ratio [47]: 84; selectivity ratio [48]: 12; selectivity ratio [49]: 84; selectivity ratio [50]: 12; IC50 (DNA gyrase): 3.06 µM; IC50 [51]: 2.6 µg/mL (≈ 8.85 µM)
